Reference: US4485110A, “β-Lactam compounds, and use” (priority 1980, dated 1984)
Where two headings read alike, the source gives them in different places.

Legend:
Assay in all cases: Antibacterial activity, broth MIC
Format in all cases: cell-based
B. subtilis A = conditions: Bacillus subtilis, compound alone
Text: (§1) The antibacterial activity of a number of compounds described in the foregoing Examples against a number of organisms is shown in Tables 1 and 10.

C. freundii E 8 = conditions: Citrobacter freundii
Text: as §1

E. cloacae N 1 = conditions: Enterobacter cloacae, N1, compound alone
Text: as §1

E. coli 0111 = conditions: Escherichia coli, compound alone
Text: as §1

E. coli ESS = conditions: Escherichia coli; compound alone, broth; read-out: Broth MIC
Text: as §1

E. coli JT 39 R^+ = conditions: Escherichia coli, read-out: Broth MIC
Text: as §1

K. aerogenes A = conditions: Klebsiella aerogenes, read-out: Broth MIC
Text: as §1

P. aeruginosa A = conditions: Pseudomonas aeruginosa, compound alone
Text: as §1

P. mirabilis 977 = conditions: Proteus mirabilis, compound alone
Text: as §1

P. morganii I 580 = conditions: Morganella morganii, I580, compound alone
Text: as §1

P. rettgeri WM 16 = conditions: Providencia rettgeri, WM16, compound alone
Text: as §1

P. vulgaris WO 91 = conditions: Proteus vulgaris, WO91, compound alone
Text: as §1

S. aureus 1517 = conditions: Staphylococcus aureus, compound alone
Text: as §1

S. aureus Oxford = conditions: Staphylococcus aureus, compound alone
Text: as §1

S. faecalis I = conditions: Enterococcus faecalis, read-out: Broth MIC
Text: as §1

S. marcescens US 20 = conditions: Serratia marcescens
Text: as §1

S. pneumoniae CN 33 = conditions: Streptococcus pneumoniae, CN33, compound alone
Text: as §1

S. pyogenes CN 10 = conditions: Streptococcus pyogenes, CN10, compound alone
Text: as §1

S. sonnei MB 11967 = conditions: Shigella sonnei, MB11967, compound alone
Text: as §1

S. typhimurium CT 10 = conditions: Salmonella enterica, compound alone
Text: as §1

S. aureus Russell = conditions: Staphylococcus aureus, compound alone
Text: as §1

[1] = E8, compound alone, broth, read-out: Broth MIC
[2] = US20, compound alone, broth, read-out: Broth MIC

C/C=C1\C(=O)N2C(C(=O)O)=C(SCC)SC12 (racemic) [Compound 29, (5RS)-Sodium (E)-6-Ethylidene-2-ethylthiopenem-3-carboxylate]
MIC (B. subtilis A): 2 µg/mL
MIC (C. freundii E 8; [1]): 62 µg/mL
MIC (E. cloacae N 1): 31 µg/mL
MIC (E. coli 0111): 31 µg/mL
MIC (E. coli ESS): 2 µg/mL
MIC (E. coli JT 39 R^+; compound alone, broth): 31 µg/mL
MIC (K. aerogenes A; compound alone, broth): 16 µg/mL
MIC (P. aeruginosa A): > 500 µg/mL
MIC (P. mirabilis 977): 125 µg/mL
MIC (P. morganii I 580): 31 µg/mL
MIC (P. rettgeri WM 16): 62 µg/mL
MIC (P. vulgaris WO 91): 62 µg/mL
MIC (S. aureus 1517): 16 µg/mL
MIC (S. aureus Oxford): 2 µg/mL
MIC (S. faecalis I; compound alone, broth): 250 µg/mL
MIC (S. marcescens US 20; [2]): 62 µg/mL
MIC (S. pneumoniae CN 33): 1 µg/mL
MIC (S. pyogenes CN 10): 4 µg/mL
MIC (S. sonnei MB 11967): 62 µg/mL
MIC (S. typhimurium CT 10): 62 µg/mL

C/C=C1/C(=O)N2C(C(=O)O)=CSC12 (racemic) [Compound 40, (5RS)-Sodium(Z)-6-Ethylidenepenem-3-carboxylate]
MIC (B. subtilis A): 31 µg/mL
MIC (C. freundii E 8; [1]): 125 µg/mL
MIC (E. cloacae N 1): 125 µg/mL
MIC (E. coli 0111): 62 µg/mL
MIC (E. coli ESS): 16 µg/mL
MIC (E. coli JT 39 R^+; compound alone, broth): 62 µg/mL
MIC (K. aerogenes A; compound alone, broth): 62 µg/mL
MIC (P. aeruginosa A): 250 µg/mL
MIC (P. mirabilis 977): 250 µg/mL
MIC (P. morganii I 580): 250 µg/mL
MIC (P. rettgeri WM 16): 125 µg/mL
MIC (P. vulgaris WO 91): 250 µg/mL
MIC (S. aureus 1517): 125 µg/mL
MIC (S. aureus Oxford): 8 µg/mL
MIC (S. aureus Russell): 16 µg/mL
MIC (S. faecalis I; compound alone, broth): > 250 µg/mL
MIC (S. marcescens US 20; [2]): 250 µg/mL
MIC (S. pneumoniae CN 33): 31 µg/mL
MIC (S. pyogenes CN 10): 8 µg/mL
MIC (S. sonnei MB 11967): 62 µg/mL
MIC (S. typhimurium CT 10): 62 µg/mL

C/C=C1/C(=O)N2C(C(=O)O)=C(CCC)SC12 (racemic) [Compound 49, (5RS)-Sodium(Z)-6-Ethylidene-2-n-propylpenem-3-carboxylate]
MIC (B. subtilis A): 1 µg/mL
MIC (C. freundii E 8; E8, read-out: Broth MIC): 125 µg/mL
MIC (E. cloacae N 1): 62 µg/mL
MIC (E. coli 0111): 125 µg/mL
MIC (E. coli ESS): 1 µg/mL
MIC (E. coli JT 39 R^+; compound alone, broth): 62 µg/mL
MIC (K. aerogenes A; compound alone, broth): 31 µg/mL
MIC (P. aeruginosa A): > 250 µg/mL
MIC (P. mirabilis 977): 62 µg/mL
MIC (P. morganii I 580): 31 µg/mL
MIC (P. rettgeri WM 16): 62 µg/mL
MIC (P. vulgaris WO 91): 62 µg/mL
MIC (S. aureus 1517): 62 µg/mL
MIC (S. aureus Oxford): 1 µg/mL
MIC (S. aureus Russell): 2 µg/mL
MIC (S. faecalis I): 125 µg/mL
MIC (S. marcescens US 20; US20, read-out: Broth MIC): 125 µg/mL
MIC (S. pneumoniae CN 33): ≤ 0.2 µg/mL
MIC (S. sonnei MB 11967): 62 µg/mL
MIC (S. typhimurium CT 10): 62 µg/mL

CC=C1C(=O)N2C(C(=O)O)=C(SCCNC(C)=O)SC12 (racemic) [Compound 59, (5RS)-Sodium 2-(2-Acetamidoethylthio)-6-ethylidenepenem-3-carboxylate]
MIC (B. subtilis A): 3.1 µg/mL
MIC (C. freundii E 8; [1]): 25 µg/mL
MIC (E. cloacae N 1): 25 µg/mL
MIC (E. coli 0111): 25 µg/mL
MIC (E. coli ESS): 3.1 µg/mL
MIC (E. coli JT 39 R^+): 12.5 µg/mL
MIC (K. aerogenes A): 12.5 µg/mL
MIC (P. aeruginosa A): > 100 µg/mL
MIC (P. mirabilis 977): 25 µg/mL
MIC (P. morganii I 580): 25 µg/mL
MIC (P. rettgeri WM 16): 25 µg/mL
MIC (P. vulgaris WO 91): 25 µg/mL
MIC (S. aureus 1517): > 100 µg/mL
MIC (S. aureus Oxford): 3.1 µg/mL
MIC (S. aureus Russell): 3.1 µg/mL
MIC (S. faecalis I; compound alone, broth): 100 µg/mL
MIC (S. marcescens US 20; [2]): 25 µg/mL
MIC (S. pneumoniae CN 33): 0.2 µg/mL
MIC (S. pyogenes CN 10): ≤ 0.1 µg/mL
MIC (S. sonnei MB 11967): 25 µg/mL
MIC (S. typhimurium CT 10): 12.5 µg/mL

C/C=C1/C(=O)N2C(C(=O)O)=C(C)SC12 (racemic) [Compound 76, (5RS)-Sodium (Z)-Ethylidene-2-methylpenem-3-carboxylate]
MIC (B. subtilis A): 25 µg/mL
MIC (C. freundii E 8; [1]): 100 µg/mL
MIC (E. cloacae N 1): > 100 µg/mL
MIC (E. coli 0111): 100 µg/mL
MIC (E. coli ESS): 6.2 µg/mL
MIC (E. coli JT 39 R^+; compound alone, broth): 100 µg/mL
MIC (K. aerogenes A; compound alone, broth): > 100 µg/mL
MIC (P. aeruginosa A): 100 µg/mL
MIC (P. mirabilis 977): 100 µg/mL
MIC (P. morganii I 580): 100 µg/mL
MIC (P. rettgeri WM 16): > 100 µg/mL
MIC (P. vulgaris WO 91): > 100 µg/mL
MIC (S. aureus 1517): 50 µg/mL
MIC (S. aureus Oxford): 12.5 µg/mL
MIC (S. aureus Russell): 6.2 µg/mL
MIC (S. faecalis I; compound alone, broth): > 100 µg/mL
MIC (S. marcescens US 20; [2]): > 100 µg/mL
MIC (S. sonnei MB 11967): 100 µg/mL
MIC (S. typhimurium CT 10): 100 µg/mL
